Values of other authors in patent US11491171B2, “Synthetic composition and method for modulating emotion and mood disorders” (GLYCOM A/S, priority 2015, dated 2022).

Test system: mice

Compound | behavioural responses during stressor exposure
6′-O-sialyllactose [6′-SL] | support normal behavioural responses
CC(=O)N[C@H]1[C@H]([C@H](O)[C@H](O)CO)O[C@@](O[C@H]2[C@@H](O)[C@@H](CO)O[C@@H](O[C@H]3[C@H](O)[C@@H](O)C(O)O[C@@H]3CO)[C@@H]2O)(C(=O)O)C[C@@H]1O (some centres unmarked) [3′-SL, 3′-O-sialyllactose] | support normal behavioural responses
